Results: patent publication US10183944B2 (Asana Biosciences, LLC, priority 2011, dated 2019)
Like-named read-outs stand apart in the source and are kept apart here.

Columns and labels:
RBL2H3 cells = experiment: Degranulation assay: β-hexosaminidase release during immune complex mediated degranulation; format: cell-based, rat; settings: Rattus norvegicus, RBL-2H3; for inhibition at 1 µM: read-out: Degranulation % inhibition at 1 μM; for EC50: read-out: Degranulation EC50
Summary of the method: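 Fluorometric β-NAG read-out (Ex 355, Em 460 nm; 30 min, RT) of supernatant after DNP-BSA stimulation (45–60 min) of anti-DNP IgE-sensitized RBL2H3 cells. Compounds (0.5% DMSO) added 15 min before antigen; degranulation expressed as % β-hexosaminidase release or inhibition.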

JAK2 = JAK2 (Homo sapiens (Human), UniProt O60674); experiment: Inhibition of enzymatic JAK2 kinase activity (TR-FRET); format: biochemical; settings: read-out: IC50 JAK
Summary of the method: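 TR-FRET read-out (Eu antibody donor, Ulight poly Glu-Tyr acceptor, 665/615 nm ratio) after a 60 min RT kinase reaction with ATP, begun following 30 min compound–enzyme preincubation. Stopped by EDTA; inhibition expressed as 100 minus % activity of positive control.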

[1] = Assay Protocol A (24 well format)
[2] = Assay Protocol B (96 well format)

JAK2, sequence (O60674 808-1132): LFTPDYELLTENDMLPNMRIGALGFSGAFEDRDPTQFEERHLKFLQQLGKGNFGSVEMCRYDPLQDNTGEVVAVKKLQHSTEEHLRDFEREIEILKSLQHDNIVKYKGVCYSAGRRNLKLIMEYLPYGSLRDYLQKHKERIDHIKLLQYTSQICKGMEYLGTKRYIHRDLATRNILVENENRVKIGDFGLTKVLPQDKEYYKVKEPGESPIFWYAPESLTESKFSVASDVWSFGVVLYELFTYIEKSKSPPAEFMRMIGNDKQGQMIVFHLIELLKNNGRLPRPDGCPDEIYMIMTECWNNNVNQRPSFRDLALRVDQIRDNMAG

Structure (SMILES) | EC50 (RBL2H3 cells; [1]) | IC50 (JAK2) | inhibition at 1 µM (RBL2H3 cells; [1]) | inhibition at 1 µM (RBL2H3 cells; [2]) | EC50 (RBL2H3 cells; [2])
Cl.O=c1[nH]ncc2nc(-c3ccccc3)nc(Nc3ccc(CN4CCNCC4)cc3)c12 [Example 7, 2-phenyl-4-(4-(piperazin-1-ylmethyl)phenylamino)pyrimido[4,5-d]pyridazin-5(6H)-one hydrochloride] | 0.086 µM | < 0.05 µM | 92% |  | 
N#CCC1CCN(c2nc(Nc3ccc(N4CCC(O)CC4)cc3)c3c(=O)[nH]ncc3n2)CC1 [Example 189, 2-(1-(4-((4-(4-hydroxypiperidin-1-yl)phenyl)amino)-5-oxo-5,6-dihydropyrimido[4,5-d]pyridazin-2-yl)piperidin-4-yl)acetonitrile] |  | < 0.05 µM |  | 98% | 0.014 µM
N#CCC1CCN(c2nc(Nc3ccc(N4CCN(CCO)CC4)cc3)c3c(=O)[nH]ncc3n2)CC1 [Example 191, 2-(1-(4-((4-(4-(2-hydroxyethyl)piperazin-1-yl)phenyl)amino)-5-oxo-5,6-dihydropyrimido[4,5-d]pyridazin-2-yl)piperidin-4-yl)acetonitrile] |  | < 0.01 µM |  | 92% | 0.021 µM

Continued, in another order:

EC50 (RBL2H3 cells; [1]) | IC50 (JAK2) | Structure (SMILES) | inhibition at 1 µM (RBL2H3 cells; [1]) | inhibition at 1 µM (RBL2H3 cells; [2]) | EC50 (RBL2H3 cells; [2])
0.047 µM | < 0.01 µM | O=C(O)C1CCN(c2ccc(Nc3nc(-c4ccccc4)nc4cn[nH]c(=O)c34)cc2)CC1 [Example 13, 1-(4-(5-oxo-2-phenyl-5,6-dihydropyrimido[4,5-d]pyridazin-4-ylamino)phenyl)piperidine-4-carboxylic acid] | 100% |  | 
0.019 µM | < 0.01 µM | O=C(O)C1CC12CCN(c1ccc(Nc3nc(-c4ccccc4)nc4cn[nH]c(=O)c34)cc1)CC2 (stereo not drawn) [Example 19, 6-(4-(5-oxo-2-phenyl-5,6-dihydropyrimido[4,5-d]pyridazin-4-ylamino)phenyl)-6-azaspiro[2.5]octane-1-carboxylic acid] | 100% |  | 
 | < 0.01 µM | O=C(O)C1CC12CCN(c1ccc(Nc3nc(N4CCCCCC4)nc4cn[nH]c(=O)c34)cc1)CC2 (stereo not drawn) [Example 62, 6-(4-((2-(azepan-1-yl)-5-oxo-5,6-dihydropyrimido[4,5-d]pyridazin-4-yl)amino)phenyl)-6-azaspiro[2.5]octane-1-carboxylic acid] |  | 100% | 0.049 µM
 | < 0.01 µM | O=C(O)CC1CCN(c2ccc(Nc3nc(N4CCCCCC4)nc4cn[nH]c(=O)c34)cn2)CC1 [Example 108, 2-(1-(5-((2-(azepan-1-yl)-5-oxo-5,6-dihydropyrimido[4,5-d]pyridazin-4-yl)amino)pyridin-2-yl)piperidin-4-yl) acetic acid] |  | 98% | 0.068 µM
